Test results: patent publication US12410163B2, “Compounds as GLP-IR agonists” (Terns Pharmaceuticals, Inc., priority 2022, dated 2025)

What was measured:
human GLP-1R receptor = biological target: T1, human GLP-1R receptor (Homo sapiens, UniProt P43220); experiment: GLP-1R low expression cell assay (cAMP TR-FRET, CHO-K1_hGLP-1Rlow_clone10); assay type: cell-based; conditions: CHO-K1_hGLP-1Rlow_clone10 cells, percent activation relative to control GLP-1 peptide
T1 construct: expressed in transfected cells
T1 sequence (P43220 24-463): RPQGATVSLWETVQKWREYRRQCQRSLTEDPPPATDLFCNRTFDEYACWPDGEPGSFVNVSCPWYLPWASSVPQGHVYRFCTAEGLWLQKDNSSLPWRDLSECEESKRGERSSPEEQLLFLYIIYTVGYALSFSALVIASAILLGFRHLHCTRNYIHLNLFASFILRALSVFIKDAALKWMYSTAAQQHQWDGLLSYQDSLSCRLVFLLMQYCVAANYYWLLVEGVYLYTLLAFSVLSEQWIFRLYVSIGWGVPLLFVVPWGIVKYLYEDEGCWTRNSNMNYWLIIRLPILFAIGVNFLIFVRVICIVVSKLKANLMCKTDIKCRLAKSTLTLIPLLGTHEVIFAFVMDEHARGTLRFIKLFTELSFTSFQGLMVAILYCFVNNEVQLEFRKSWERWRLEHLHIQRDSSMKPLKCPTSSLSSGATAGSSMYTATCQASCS
Procedure: Stable cell lines expressing high and low GLP-1R surface expression are generated in CHO-K1 cells transfected (Fugene 6) with a puromycin selectable DNA plasmid encoding human GLP-1R receptor (accession number: NM_002062.5) under control of an EF1A promoter. Transfected cells are seeded into 24-well plates (9,000 cells/well) containing complete medium and incubated in a humidified incubator at 37° C. with 5% carbon dioxide. After overnight incubation, medium is replaced with complete medium supplemented with puromycin (6 μg/mL) and refreshed every 2-3 days to select for stably transfected cells. Individual pools of selected cells are expanded prior to analysis for responsiveness to GLP-1 control peptide using a TR-FRET assay to detect cAMP (LANCE Ultra cAMP Assay, Perkin Elmer). Briefly, cells are collected in Versene solution, plated in 384-well plates (1,000 cells/well) and combined with serially diluted GLP-1R control peptide (10 nL) using an acoustic dispenser (ECHO). Plates are incubated for 30 minutes at 25° C. prior to the addition of EU-cAMP tracer (5 μL) and Ulight-anti-cAMP (5 μL) reagents to each well, followed by 15 minutes incubation at 25° C. TR-FRET signal is detected using an EnVision Multimode Plate Reader (excitation=320 nm; emission=615 and 655 nm). Dose-response curves are used to generate EC50 values as a measure of responsiveness to the GLP-1R control peptide. Selected cell lines are monitored for responsiveness over multiple passages to ensure stability. […] Briefly, GLP-1R expression is analyzed by flow cytometry using a fluorescein-labeled Exendin-4 peptide fluorescent probe (FLEX). Cells are harvested in Versene solution and washed 3-times with PBS+0.5% BSA before incubation with FLEX reagent (10 μM) for 2 hours at room temperature. After incubation, cells are washed 3-times in PBS+0.5% BSA before final resuspension in PBS prior to analysis by flow cytometry to measure FLEX mean fluorescence intensity (MFI) as a measure of GLP-1R expression on the cell surface.
For compound testing in the CHO-K1_hGLP-1Rlow_clone10 cell lines, cells are seeded in 384-well plates (1,000 cells/well). Test compounds are serially diluted in DMSO (10-point, 3-fold dilution), added to wells using an ECHO dispenser (10 nL/well) and plates are centrifuged for 1 min and agitated for 2 min at room temperature prior to 30-minute incubation at 25° C. After incubation, Eu-cAMP (5 μL) and Ulight-anti-cAMP (5 μL) reagents are added to each well, followed by centrifugation for 1 minute, agitation for 2 minutes at room temperature, and final incubation of the plates at 25° C. for 15 minutes. Plates are read using an EnVision microplate reader (excitation=320 nm; emission=615 and 655 nm). Dose-response curves are generated from duplicate wells based on percent activation calculated relative to a control GLP-1 peptide agonist that was run in parallel. EC50 values are determined by fitting percent activation as a function of compound concentration using the Hill equation (XLfit).
Stable cell lines expressing high and low GLP-1R surface expression were generated in CHO-K1 cells transfected (Fugene 6) with a puromycin selectable DNA plasmid encoding human GLP-1R receptor (accession number: NM_002062.5) under control of an EF1A promoter. Transfected cells were seeded into 24-well plates (9,000 cells/well) containing complete medium and incubated in a humidified incubator at 37° C. with 5% carbon dioxide. After overnight incubation, medium was replaced with complete medium supplemented with puromycin (6 μg/mL) and refreshed every 2-3 days to select for stably transfected cells. Individual pools of selected cells were expanded prior to analysis for responsiveness to GLP-1 control peptide using a TR-FRET assay to detect cAMP (LANCE Ultra cAMP Assay, Perkin Elmer).

[1] = Metabolic stability in hepatocytes; assay type: in vitro ADME; conditions: cryopreserved human hepatocytes (suspension), 1×10^6 cells/mL
Procedure: Test compounds are incubated in human hepatocytes and stability is assessed from the substrate […] approach. Test compounds are dissolved in dimethyl sulfoxide (DMSO) to create a 10 mM Stock, and then further diluted to create a 1000× Working Stock of 1 mM with DMSO in 96-well plates for test compounds and the positive control (midazolam). Vials containing cryopreserved hepatocytes are removed from the liquid nitrogen tank and immediately immersed in a 37° C. water bath. The vials are shaken gently until the contents had thawed and were then immediately emptied into 48 mL of pre-warmed HT Medium in a 50 mL conical tube. Cells remaining in the vial are resuspended with 1.0 mL of pre-warmed HT Medium and added to the conical tube. The tube is capped and then gently inverted several times to resuspend the hepatocytes. The cell suspension is centrifuged at 50×g at room temperature for 5 minutes and the supernatant discarded. The cell pellet is loosened by gently swirling the centrifuge tube and is re-suspended in 4 mL of warm Dulbecco's Modified Eagle medium (DMEM). Cell density is determined by a cell counter by Nexcelom, and DMEM medium is added to obtain a target density of 1×10^6 cells/mL. The assay is carried out in 96-well microtiter plates. Test Compounds are incubated at 1 μM with 1×10^6 cells/mL hepatocytes in DMEM for 0, 30, 60, 120 and 240 minutes. The incubation is carried out with gentle shaking at 37° C. under a humid atmosphere of 95% air/5% CO2. The volume of the incubation mixture is 37 μL with a final 0.1% DMSO. At each of the time points, the incubation is stopped by adding 150 μL quenching solution (100% acetonitrile, 0.1% formic acid containing bucetin as an internal standard for positive ESI mode). Subsequently, the mixtures are vortexed for 20 min and centrifuged at 4,000 RPM at 10° C. The supernatant (80 μL) is transferred to a clean 96-well plate and analyzed by LC-MS/MS. Midazolam at 1 μM with a final 0.1% DMSO is included as a positive control to verify assay performance. The percent parent remaining, intrinsic and predicted hepatic clearance and t1/2 are calculated. All samples are analyzed by LC-MS/MS using an AB Sciex API 4000 instrument, coupled to a Shimadzu LC-20AD LC Pump system. Separation is achieved using a Waters Atlantis T3 dC18 reverse phase HPLC column (20 mm×2.1 mm) at a flow rate of 0.5 mL/min. The mobile phase consisted of 0.1% formic acid in water (solvent A) and 0.1% formic acid in 100% acetonitrile (solvent B). Elution conditions are detailed below.
The ion optics of each test compound are optimized for their declustering potential (DP), […] (CE), collision-cell exit potential (CXP) and used in a selected ion monitoring experiment in the positive ion mode. The peak area ratio of each test compound to internal standard is then evaluated for stability. The extent of metabolism is calculated based on the disappearance of the test compound, compared to its initial concentration. The initial rates of clearance of the test compound are calculated using the linear regression plot of semi-log % remaining of the compound versus time. The elimination rate constant (k) of the linear regression plot is then used to determine t1/2 and the intrinsic clearance (CLint) using the following formula, where Chepatocyte (million cells/mL) is the cell density of the incubation: k=−slope t1/2=0.693/k CLint=k/Chepatocyte
Test compounds were incubated in human hepatocytes and stability was assessed from the substrate […] approach. Test compounds were dissolved in dimethyl sulfoxide (DMSO) to create a 10 mM Stock, and then further diluted to create a 1000× Working Stock of 1 mM with DMSO in 96-well plates for test compounds and the positive control (midazolam). Vials containing cryopreserved hepatocytes were removed from the liquid nitrogen tank and immediately immersed in a 37° C. water bath. […]

Structure (SMILES)	EC50 (human GLP-1R receptor)	half-life at 1 μM ([1]; 0-240 min, read-out: hHep t1/2)	CLint scaled at 1 μM ([1]; intrinsic clearance, read-out: hHep CLint)
CC1(c2ccc(C#N)cc2F)Oc2cccc(N3CCN(Cc4nc5ccc(C(=O)O)cc5n4C[C@@H]4CCO4)C4CC43)c2O1 (stereo partly drawn) [Compound 41, 2-((5-(2-(4-cyano-2-fluorophenyl)-2-methylbenzo[d][1,3]dioxol-4-yl)-2,5-diazabicyclo[4.1.0]heptan-2-yl)methyl)-1-(((S)-oxetan-2-yl)methyl)-1H-benzo[d]imidazole-6-carboxylic Acid]	< 5 nM		
N#Cc1ccc(COc2cccc(N3CCC(Cc4nc5ccc(C(=O)O)cc5n4Cc4cncs4)C4CC43)n2)c(F)c1 (centres unmarked) [Compound 46, 2-((2-(6-((4-Cyano-2-fluorobenzyl)oxy)pyridin-2-yl)-2-azabicyclo[4.1.0]heptan-5-yl)methyl)-1-(thiazol-5-ylmethyl)-1H-benzo[d]imidazole-6-carboxylic Acid]	50 to 100 nM		
N#Cc1ccc(COc2cccc(C3CCN(Cc4nc5ccc(C(=O)O)cc5n4C[C@@H]4CCO4)CC3)n2)c(F)c1 [Reference Compound B, reference compound]		2.6 h	15.5 mL/min/kg
CCn1nncc1Cn1c(CN2CCN(c3cccc(OCc4ccc(C#N)cc4F)n3)[C@@H]3C[C@@H]32)nc2ccc(C(=O)O)cc21 [Compound 44, 2-((5-(6-((4-Cyano-2-fluorobenzyl)oxy)pyridin-2-yl)-2,5-diazabicyclo[4.1.0]heptan-2-yl)methyl)-1-((1-ethyl-1H-1,2,3-triazol-5-yl)methyl)-1H-benzo[d]imidazole-6-carboxylic Acid]	> 100 nM		
CO[C@H](C)Cn1c(CN2CCN(c3cccc4c3OC(C)(c3ccc(C#N)cc3F)O4)C3CC32)nc2ccc(C(=O)O)cc21 (stereo partly drawn) [Compound 39, 2-((5-(2-(4-Cyano-2-fluorophenyl)-2-methylbenzo[d][1,3]dioxol-4-yl)-2,5-diazabicyclo[4.1.0]heptan-2-yl)methyl)-1-((R)-2-methoxypropyl)-1H-benzo[d]imidazole-6-carboxylic Acid]	50 to 100 nM		
CC1(c2ccc(C#N)cc2F)Oc2cccc(N3CCN(Cc4nc5ccc(-c6nnc(C(F)(F)F)[nH]6)cc5n4Cc4cncs4)C4CC43)c2O1 (centres unmarked) [Compound 13, 3-Fluoro-4-(2-methyl-4-(5-((1-(thiazol-5-ylmethyl)-6-(5-(trifluoromethyl)-4H-1,2,4-triazol-3-yl)-1H-benzo[d]imidazol-2-yl)methyl)-2,5-diazabicyclo[4.1.0]heptan-2-yl)benzo[d][1,3]dioxol-2-yl)benzonitrile]	> 100 nM		
C[C@@]1(c2ccc(C#N)cc2F)Oc2cccc(N3CCN(Cc4nc5ccc(C(=O)O)cc5n4Cc4cncs4)[C@H]4C[C@H]43)c2O1 [Compound 35, 2-((5-(2-(4-Cyano-2-fluorophenyl)-2-methylbenzo[d][1,3]dioxol-4-yl)-2,5-diazabicyclo[4.1.0]heptan-2-yl)methyl)-1-(thiazol-5-ylmethyl)-1H-benzo[d]imidazole-6-carboxylic Acid]	> 100 nM		
N#Cc1ccc(COc2cccc(C3CCN(Cc4nc5ccc(C(=O)O)cc5n4Cc4cncs4)C4CC34)n2)c(F)c1 (centres unmarked) [Compound 16, 2-((5-(6-((4-Cyano-2-fluorobenzyl)oxy)pyridin-2-yl)-2-azabicyclo[4.1.0]heptan-2-yl)methyl)-1-(thiazol-5-ylmethyl)-1H-benzo[d]imidazole-6-carboxylic Acid]	5 to 50 nM		
CO[C@H](C)Cn1c(CN2CCC(c3cccc(OCc4ccc(C#N)cc4F)n3)C3CC32)nc2ccc(C(=O)O)cc21 (stereo partly drawn) [Compound 21, 2-((5-(6-((4-Cyano-2-fluorobenzyl)oxy)pyridin-2-yl)-2-azabicyclo[4.1.0]heptan-2-yl)methyl)-1-((R)-2-methoxypropyl)-1H-benzo[d]imidazole-6-carboxylic Acid]	5 to 50 nM		
N#Cc1ccc(COc2cccc(N3CCN(Cc4nc5ccc(-c6nnc(C(F)(F)F)[nH]6)cc5n4Cc4cncs4)[C@@H]4C[C@@H]43)n2)c(F)c1 (racemic) [Compound 12, 3-Fluoro-4-(((6-(5-((1-(thiazol-5-ylmethyl)-6-(5-(trifluoromethyl)-4H-1,2,4-triazol-3-yl)-1H-benzo[d]imidazol-2-yl)methyl)-2,5-diazabicyclo[4.1.0]heptan-2-yl)pyridin-2-yl)oxy)methyl)benzonitrile]	> 100 nM		
